Reference: patent EP2769738B1, “Conjugated TLR7 and/or TLR8 and TLR2 polycationic agonists” (Invivogen, priority 2013, dated 2014)
Several values for one entry are separate records, joined by “and”; a condition that tells them apart may be missing. Identical values can stand only once.

Assay: Determination of nanoparticle (lipoplex) size by dynamic light scattering
Type: physicochemical
Details: ratio 3:24 (w:w); for Conformity (C)/ Non-conformity (NC) / Mean Diameter (nm): complexes with pDNA; for Mean Diameter (nm): dynamic light scattering at 25°C; for Mean Diameter (nm) / PDI: triplicate measurements; for PDI: polydispersity index of complexes with pDNA, 25°C
Protocol: • 1. Preparative HPLC Method: Unless otherwise indicated, the compounds described herein were purified by RP-MPLC ARMEN® Spot Flash Liquid Chromatography (ARMEN Instrument, Saint Ave, France) on a preparative column (SVF D26) packed with 25-40 µm C18 resin (Merck chimie SAS), by applying a linear gradient of 0-10% MeCN in NH4OAc (10 mM) solution (pH = 9) over 60 min at a 15 mL/min flow rate. The purification was monitored at 254 nm. Suitable fractions were pooled and lyophilised. • 2. Proton NMR Spectra: Unless otherwise indicated, all ^1H NMR spectra were run on a Bruker series 300 MHz instrument. Where so characterized, all observed protons are reported as parts-per-million (ppm) downfield from tetramethylsilane (TMS) or other internal reference in the appropriate solvent indicated. NMR spectra were recorded on a Brucker 300 spectrometer. For ^1H (300 MHz) spectra δ values were referenced to CDCI3-d1 (7.26 ppm), DMSO- d6 (2.50 ppm), D2O-d2 (4.79 ppm) or MeOD-d4 (3.31 ppm). The peak patterns are indicated as follows: s: singlet, sl: large singlet, d: doublet, t: triplet, q: quartet, m: multiplet. • 3. Mass Spectra (MS): Analyses were run on an Agilent Model 6130 quadrupole MS. Unless otherwise indicated, all mass spectral data for starting materials, intermediates and/or exemplary compounds are reported as mass/charge (m/z), having an (M+H)^+ molecular ion. The molecular ion reported was obtained by electrospray detection method (commonly referred to as an ESI MS). Compounds having an isotopic atom, such as bromine and the like, are generally reported according to the detected isotopic pattern, as appreciated by those skilled in the art. • 4. Particle size: Particle size was determined using a Malvern Nanosizer (Malvern, Worcestershire, UK) and Malvern ZETASIZER.RTM. (Malvern, Worcestershire, UK). • 5. Naming Convention The compounds disclosed and described herein have been named using the naming convention provided with Chem-Draw Ultra 11.0 software, available in Chem. Office. In some instances, compounds were named with the term "spermine" inserted where appropriate. For example, where the spermine is substituted with Boc, "N1,N5,N10-TriBoc-spermine" is added to the Chem-Draw nomenclature in the appropriate place. Chem-Draw utilizes the ISIS Draw software compound naming convention, as appreciated by those skilled in the art.
For pDNA:TLR7-TLR2 polyamine molecules complexes, a ratio pDNA:TLR7-TLR2 polyamine molecules of 3:24 (w:w) was prepared in serum-free culture medium or in 5% glucose. The TLR7-TLR2 conjugated compound of interest was prediluted in serum-free culture medium or in 5% glucose and incubated for 5 minutes at room temperature, prior to the addition of an endotoxin-free, salt-free preparation of pDNA. In these experiments, the pBsr2pCpGLacZh plasmid was used in the pDNA:TLR7-TLR2 polyamine molecule complexes. The pDNA:TLR7-TLR2 polyamine molecule mixtures were incubated at room temperature for 30 minutes to allow the formation of the complex. The control used in these experiments was the cationic lipid transfection agent LyoVec™ (InvivoGen) prepared in a similar manner.
In order to confirm that TLR7-TLR2 polyamine molecules complex DNA, lipoplex size was determined. The physical characterization of complex was achieved by dynamic light scattering using the analytical equipment for laser diffraction Zetasizer Nano-ZS (Malvern). pDNA:TLR7-TLR2 polyamine molecule complexes were prepared as described above. Subsequently, 50µl of pDNA: TLR7-TLR2 polyamine molecule complexes were placed into a disposable sizing cuvette and measurements were made under conditions defined according to manufacturer's instructions. The measurements were made at 25°C in triplicate and a size distribution report was obtained. […]

Compound	Conformity (C)/ Non-conformity (NC)	Mean Diameter (nm)	PDI
CCCCCCCCCCCCCCCC(=O)OCC(CSC[C@H](N)C(=O)N[C@@H](CO)C(=O)N[C@@H](CCCCN)C(=O)N[C@@H](CCCCN)C(=O)N[C@@H](CCCCNC(=O)c1ccc(Cn2c(O)nc3c(N)nc(NCCCC)nc32)cc1)C(=O)N[C@@H](CCCCN)C(=O)O)OC(=O)CCCCCCCCCCCCCCC (stereo partly drawn) [CL530, (2S,5S,8S,11S,14S,17R)-17-amino-5-(4-(4-((6-amino-2-(butylamino)-8-hydroxy-9H-purin-9-yl)methyl)benzamido)butyl)-2,8,11-tris(4-aminobutyl)-14-(hydroxymethyl) -4,7,10,13,16,24-hexaoxo-21-(palmitoyloxy)-23-oxa-19-thia-3,6,9,12,15-pentaaza nonatriacontan-1-oic acid]	NC (larger sizes were considered to show aggregates or non-conformity)	188,0 nm and 187,6 nm and 213,1 nm	0,332 and 0,351 and 0,315
CCCCCCCCCCCCCCCC(=O)OCC(CSC[C@H](N)C(=O)N[C@@H](CO)C(=O)N[C@@H](CCCCN)C(=O)N[C@@H](CCCCNC(=O)c1ccc(Cn2c(O)nc3c(N)nc(NCCCC)nc32)cc1)C(=O)N[C@@H](CCCCN)C(=O)N[C@@H](CCCCN)C(=O)O)OC(=O)CCCCCCCCCCCCCCC (stereo partly drawn) [CL531, (2S,5S,8S,11S,14S,17R)-17-amino-8-(4-(4-((6-amino-2-(butylamino)-8-hydroxy-9H-purin-9-yl)methyl)benzamido)butyl)-2,5,11-tris(4-aminobutyl)-14-(hydroxymethyl) -4,7,10,13,16,24-hexaoxo-21-(palmitoyloxy)-23-oxa-19-thia-3,6,9,12,15-pentaaza nonatriacontan-1-oic acid]	C (ranged between 140 and 200 nm in diameter were considered to show conformity)	145,0 nm and 143,8 nm and 140,1 nm	0,144 and 0,153 and 0,138
CCCCCCCCCCCCCCCC(=O)OCC(CSC[C@H](N)C(=O)N[C@@H](CO)C(=O)N[C@@H](CCCCNC(=O)c1ccc(Cn2c(O)nc3c(N)nc(NCCCC)nc32)cc1)C(=O)N[C@@H](CCCCN)C(=O)N[C@@H](CCCCN)C(=O)N[C@@H](CCCCN)C(=O)O)OC(=O)CCCCCCCCCCCCCCC (stereo partly drawn) [CL533, (2S,5S,8S,11S,14S,17R)-17-amino-11-(4-(4-((6-amino-2-(butylamino)-8-hydroxy-9H-purin-9-yl)methyl)benzamido)butyl)-2,5,8-tris(4-aminobutyl)-14-(hydroxylmethyl)-4,7,10,13,16,24-hexaoxo-21-(palmitoyloxy)-23-oxa-19-thia-3,6,9,12,15-pentaazanonatria contan-1-oic acid]	C (ranged between 140 and 200 nm in diameter were considered to show conformity)	140,4 nm and 149,8 nm and 141,5 nm	0,195 and 0,198 and 0,185
CCCCCCCCCCCCCCCC(=O)N[C@@H](CSCC(COC(=O)CCCCCCCCCCCCCCC)OC(=O)CCCCCCCCCCCCCCC)C(=O)N[C@@H](CO)C(=O)N[C@@H](CCCCN)C(=O)N[C@@H](CCCCN)C(=O)N[C@@H](CCCCNC(=O)c1ccc(Cn2c(O)nc3c(N)nc(NCCCC)nc32)cc1)C(=O)N[C@@H](CCCCN)C(=O)O (stereo partly drawn) [CL535, (2S,5S,8S,11S,14S,17R)-5-(4-(4-((6-amino-2-(butylamino)-8-hydroxy-9H-purin-9-yl)methyl)benzamido)butyl)-2,8,11-tris(4-aminobutyl)-14-(hydroxymethyl)-4,7,10, 13,16,24-hexaoxo-17-palmitamido-21-(palmitoyloxy)-23-oxa-19-thia-3,6,9,12,15-pentaazanonatriacontan-1-oic acid]	NC (larger sizes were considered to show aggregates or non-conformity)	229,5 nm and 232,3 nm and 226,8 nm	0,351 and 0,336 and 0,396
CCCCCCCCCCCCCCCC(=O)N[C@@H](CSCC(COC(=O)CCCCCCCCCCCCCCC)OC(=O)CCCCCCCCCCCCCCC)C(=O)N[C@@H](CO)C(=O)N[C@@H](CCCCN)C(=O)N[C@@H](CCCCNC(=O)c1ccc(Cn2c(O)nc3c(N)nc(NCCCC)nc32)cc1)C(=O)N[C@@H](CCCCN)C(=O)N[C@@H](CCCCN)C(=O)O (stereo partly drawn) [CL536, (2S,5S,8S,11S,14S,17R)-8-(4-(4-((6-amino-2-(butylamino)-8-hydroxy-9H-purin-9-yl)methyl)benzamido)butyl)-2,5,11-tris(4-aminobutyl)-14-(hydroxymethyl)-4,7,10, 13,16,24-hexaoxo-17-palmitamido-21-(palmitoyloxy)-23-oxa-19-thia-3,6,9,12,15-pentaazanonatriacontan-1-oic acid]	NC (larger sizes were considered to show aggregates or non-conformity)	231,9 nm and 236,1 nm and 225,8 nm	0,465 and 0,583 and 0,65
CCCCCCCCCCCCCCCC(=O)N[C@@H](CSCC(COC(=O)CCCCCCCCCCCCCCC)OC(=O)CCCCCCCCCCCCCCC)C(=O)N[C@@H](CO)C(=O)N[C@@H](CCCCNC(=O)c1ccc(Cn2c(O)nc3c(N)nc(NCCCC)nc32)cc1)C(=O)N[C@@H](CCCCN)C(=O)N[C@@H](CCCCN)C(=O)N[C@@H](CCCCN)C(=O)O (stereo partly drawn) [CL537, (2S,5S,8S,11S,14S,17R)-11-(4-(4-((6-amino-2-(butylamino)-8-hydroxy-9H-purin-9-yl)methyl)benzamido)butyl)-2,5,8-tris(4-aminobutyl)-14-(hydroxymethyl)-4,7,10, 13,16,24-hexaoxo-17-palmitamido-21-(palmitoyloxy)-23-oxa-19-thia-3,6,9,12,15-pentaazanonatria contan-1-oic acid]	NC (larger sizes were considered to show aggregates or non-conformity)	198,1 nm and 203,5 nm and 219,3 nm	0,704 and 0,618 and 0,626
